Structures are written as SMILES.

For 63 compounds, LC retention time results are on record in the RepoRT retention time repository.

The series in a line: RP, Waters ACQUITY UPLC BEH C8, 100 × 2.1 mm, 1.7 µm, 55 °C, 0.6 mL/min, estimated dead time 0.37 min; A: 50% water + 25% acetonitrile + 25% isopropanol + 0.05% acetic acid + 20 µM phosphoric acid + 5 mM ammonium acetate; B: 50% acetonitrile + 50% isopropanol + 0.05% acetic acid + 5 mM ammonium acetate; gradient (min/%B) 0/1 0.1/1 2/30 11.5/90 12/99.9 12.5/99.9 12.55/65 12.65/30 12.75/1 12.95/1 13.25/1. The conditions noted are these: stereoisomer not certain.
In the case of `CC1=CCCC(C)(C)C1/C=C/C(C)=C/C=C/C(C)=C/C=C/C=C(C)/C=C/C=C(C)/C=C/C1=C(C)CCCC1(C)C` (stereo not drawn) [Alpha-carotene], the LC retention time was 8.56 min.
`C=C1C=CCC(C)(C)C1C=CC(C)=CC=CC(C)=CC=CC=C(C)C=CC=C(C)C=CC1=C(C)CC(O)CC1(C)C` (stereo not drawn) [Anhydrolutein I]: the LC retention time was 5.77 min.
In the case of `CCCCCCCCCCCCCCCCCCCC(=O)OC(CC(=O)[O-])C[N+](C)(C)C` (stereo not drawn) [Arachidyl carnitine CAR(20:0)] it was 2.88 min; in that of `CC1=C(/C=C/C(C)=C/C=C/C(C)=C/C=C/C=C(C)/C=C/C=C(C)/C=C/C2=C(C)CCCC2(C)C)C(C)(C)CCC1` [Beta-carotene], 8.56 min.
The figure for `CC(C=CC=C(C)C=CC1=C(C)CCCC1(C)C)=CC=CC=C(C)C=CC=C(C)C=CC1=C(C)CC(O)CC1(C)C` (stereo not drawn) [Beta-cryptoxanthin] is 6.41 min; for `CCCCCCCCCCCC=CC(O)C(CO)NC(=O)CCCCCCCCCCCCCCCCCCC` (stereo not drawn) [Cer(d16:1/20:0)] it is 7.27 min; for `CCCCCCCCCCCC=CC(O)C(CO)NC(=O)CCCCCCCCCCCCCCCCCCCCC` (stereo not drawn) [Cer(d16:1/22:0)] it is 7.93 min.
Consider `CCCCCCCCCCCC=CC(O)C(CO)NC(=O)CCCCCCCCCCCCCCCCCCCCCCC` (stereo not drawn) [Cer(d16:1/24:0)], for which the LC retention time is 8.54 min.
For the compound `CCCCCCCCCCCCCCCCCCCCCC(=O)NC(CO)C(O)CCCCCCCCCCCCCCC` (stereo not drawn) [Cer(d18:0/22:0)], the LC retention time is 8.61 min.
The figure for `CCCCCCCCCCCCCCCCCCCCCCCC(=O)NC(CO)C(O)CCCCCCCCCCCCCCC` (stereo not drawn) [Cer(d18:0/24:0)] is 9.14 min; for `CCCCCCCCCCCCCC=CC(O)C(CO)NC(=O)CCCCCCCCCCCCCCC` (stereo not drawn) [Cer(d18:1/16:0)] it is 6.5 min.
Turning to `CCCCCCCCCCCCCC=CC(O)C(CO)NC(=O)CCCCCCCCCCCCCCCCC` (stereo not drawn) [Cer(d18:1/18:0)], the LC retention time is 7.19 min.
In the case of `CCCCCCCCCCCCCC=CC(O)C(CO)NC(=O)CCCCCCCCCCCCCCCCCCC` (stereo not drawn) [Cer(d18:1/20:0)] it was 7.86 min.
In the case of `CCCCCCCCCCCCCC=CC(O)C(CO)NC(=O)CCCCCCCCCCCCCCCCCCCCC` (stereo not drawn) [Cer(d18:1/22:0)] it was 8.46 min.
Consider `CCCCCCCCCCCCCC=CC(O)C(CO)NC(=O)CCCCCCCCCCCCCCCCCCCCCCC` (stereo not drawn) [Cer(d18:1/24:0)], for which the LC retention time is 9 min.
In the case of `CCCCCCCCCCCCCC=CC(O)C(CO)NC(=O)CCCCCCCCCCCCCCCCCCCCCCCC` (stereo not drawn) [Cer(d18:1/25:0)] it was 9.26 min; in that of `CC(C)CCCC(C)C1CCC2C3CC=C4CC(O)CCC4(C)C3CCC12C` (stereo not drawn) [Cholesterol], 4.54 min.
`CCCCCCCCCCCCCCCC(=O)OCC(CO)OC(=O)CCCCCCCCCCCCCCC` (stereo not drawn) [DG(16:0/16:0)]: the LC retention time is 7.6 min.
In the case of `CCCCCCCCCCCCCCCCCC(=O)OCC(CO)OC(=O)CCCCCCCCCCCCCCC` (stereo not drawn) [DG(18:0/16:0)] it was 8.19 min.
In the case of `CCCCCCCCCC(=O)OC(CC(=O)[O-])C[N+](C)(C)C` (stereo not drawn) [Decanoylcarnitine CAR(10:0)] it was 0.609 min.
Regarding `Cc1cc(O)cc2c1OC(C)(CCCC(C)CCCC(C)CCCC(C)C)CC2` (stereo not drawn) [Delta-Tocopherol], the LC retention time was 5.02 min.
In the case of `CC(C)=CCCC(C)=CC=CC(C)=CC=CC(C)=CC=CC=C(C)C=CC=C(C)C=CC1=C(C)CCCC1(C)C` [Gamma-carotene] it was 8.22 min; in that of `CCCCCCCCCCCCCCCCCCCCCCCCCC(=O)OC(CC(=O)[O-])C[N+](C)(C)C` (stereo not drawn) [Hexacosanoylcarnitine CAR(26:0)], 5.15 min; in that of `CCCCCCCCCCCCCCCC(=O)OCC(O)COP(=O)(O)O` (stereo not drawn) [LPA(16:0/0:0)], 1.58 min.
On to `CCCCCCCCCCCCCC(=O)OC(CO)COP(=O)([O-])OCC[N+](C)(C)C` (stereo not drawn) [LPC(0:0/14:0)], for which the LC retention time is 1.27 min.
As to `CCCCCCCCCCCCCCCC(=O)OC(CO)COP(=O)([O-])OCC[N+](C)(C)C` (stereo not drawn) [LPC(0:0/16:0)], the LC retention time was 1.75 min.
On to `CCCCCCCCCCCCCCCCCC(=O)OC(CO)COP(=O)([O-])OCC[N+](C)(C)C` (stereo not drawn) [LPC(0:0/18:0)], for which the LC retention time is 2.3 min.
The figure for `CCCCCCCCCCCCCC(=O)OCC(O)COP(=O)([O-])OCC[N+](C)(C)C` (stereo not drawn) [LPC(14:0/0:0)] is 1.36 min.
The figure for `CCCCCCCCCCCCCCC(=O)OCC(O)COP(=O)([O-])OCC[N+](C)(C)C` (stereo not drawn) [LPC(15:0/0:0)] is 1.61 min; for `CCCCCCCCCCCCCCCC(=O)OCC(O)COP(=O)([O-])OCC[N+](C)(C)C` (stereo not drawn) [LPC(16:0/0:0)] it is 1.87 min; for `CCCCCCCCCCCCCCCCC(=O)OCC(O)COP(=O)([O-])OCC[N+](C)(C)C` (stereo not drawn) [LPC(17:0/0:0)] it is 2.14 min.
For `CCCCCCCCCCCCCCCCCC(=O)OCC(O)COP(=O)([O-])OCC[N+](C)(C)C` (stereo not drawn) [LPC(18:0/0:0)], the LC retention time is 2.42 min.
Regarding `CCCCCCCCCCCCCCCCCCC(=O)OCC(O)COP(=O)([O-])OCC[N+](C)(C)C` (stereo not drawn) [LPC(19:0/0:0)], the LC retention time is 2.7 min.
In the case of `CCCCCCCCCCCCCCCCCCCC(=O)OCC(O)COP(=O)([O-])OCC[N+](C)(C)C` (stereo not drawn) [LPC(20:0/0:0)] it was 3.02 min; in that of `CCCCCCCCCCCCCCCCCCCCCC(=O)OCC(O)COP(=O)([O-])OCC[N+](C)(C)C` (stereo not drawn) [LPC(22:0/0:0)], 3.73 min.
The figure for `CCCCCCCCCCCCCCCCCCCCCCCC(=O)OCC(O)COP(=O)([O-])OCC[N+](C)(C)C` (stereo not drawn) [LPC(24:0/0:0)] is 4.52 min; for `CCCCCCCCCCCCCCCCOCC(O)COP(=O)([O-])OCC[N+](C)(C)C` (stereo not drawn) [LPC(O-16:0/0:0)] it is 2.09 min.
Consider `CCCCCCCCCCCCCCCCCCOCC(O)COP(=O)([O-])OCC[N+](C)(C)C` (stereo not drawn) [LPC(O-18:0/0:0)], for which the LC retention time was 2.66 min.
As to `CCCCCCCCCCCCCCCCCCCCOCC(O)COP(=O)([O-])OCC[N+](C)(C)C` (stereo not drawn) [LPC(O-20:0/0:0)], the LC retention time is 3.31 min.
The figure for `CCCCCCCCCCCCCCC=COCC(O)COP(=O)([O-])OCC[N+](C)(C)C` (stereo not drawn) [LPC(P-16:0/0:0)] is 2.09 min.
In the case of `CCCCCCCCCCCCCCCCC=COCC(O)COP(=O)([O-])OCC[N+](C)(C)C` (stereo not drawn) [LPC(P-18:0/0:0)] it was 2.65 min; in that of `CCCCCCCCCCCCCCCCCC(=O)OC(CO)COP(=O)(O)OCCN` (stereo not drawn) [LPE(0:0/18:0)], 2.38 min.
In the case of `CCCCCCCCCCCCCCCC(=O)OCC(O)COP(=O)(O)OCCN` (stereo not drawn) [LPE(16:0/0:0)] it was 1.93 min; in that of `CCCCCCCCCCCCCCCCCC(=O)OCC(O)COP(=O)(O)OCCN` (stereo not drawn) [LPE(18:0/0:0)], 2.48 min.
For `CCCCCCCCCCCCCCCCC=COCC(O)COP(=O)(O)OCCN` (stereo not drawn) [LPE(P-18:0/0:0)], the LC retention time is 2.75 min.
On to `CCCCCCCCCCCCCC=CC(O)C(COC1OC(CO)C(OC2OC(CO)C(O)C(O)C2O)C(O)C1O)NC(=O)CCCCCCCCCCCCCCC` (stereo not drawn) [LacCer(d18:1/16:0)], for which the LC retention time is 5.75 min.
The figure for `CCCCCCCCCCCCCC=CC(O)C(COC1OC(CO)C(OC2OC(CO)C(O)C(O)C2O)C(O)C1O)NC(=O)CCCCCCCCCCCCCCCCCCCCC` (stereo not drawn) [LacCer(d18:1/22:0)] is 7.86 min; for `CCCCCCCCCCCCCC=CC(O)C(COC1OC(CO)C(OC2OC(CO)C(O)C(O)C2O)C(O)C1O)NC(=O)CCCCCCCCCCCCCCCCCCCCCCC` (stereo not drawn) [LacCer(d18:1/24:0)] it is 8.4 min.
Regarding `CCCCCCCCCCCC(=O)OC(CC(=O)[O-])C[N+](C)(C)C` (stereo not drawn) [Lauroylcarnitine CAR(12:0)], the LC retention time was 0.876 min.
The figure for `CC(C=CC=C(C)C=CC1=C(C)CC(O)CC1(C)C)=CC=CC=C(C)C=CC=C(C)C=CC1C(C)=CC(O)CC1(C)C` (stereo not drawn) [Luteine] is 3.74 min; for `CCCCCCCC(=O)OC(CC(=O)O)C[N+](C)(C)C` (stereo not drawn) [Octanoylcarnitine CAR(8:0)] it is 0.462 min.
Consider `CCCCCCCCCCCCCCCC(=O)OCC(COP(=O)([O-])OCC[N+](C)(C)C)OC(=O)CCCCCCCCCCCCCC` (stereo not drawn) [PC(16:0/15:0)], for which the LC retention time is 5.97 min.
For `CCCCCCCCCCCCCCCC(=O)OCC(COP(=O)([O-])OCC[N+](C)(C)C)OC(=O)CCCCCCCCCCCCCCC` (stereo not drawn) [PC(16:0/16:0)], the LC retention time is 6.38 min.
For `CCCCCCCCCCCCCCCCC(=O)OC(COC(=O)CCCCCCCCCCCCCCC)COP(=O)([O-])OCC[N+](C)(C)C` (stereo not drawn) [PC(16:0/17:0)], the LC retention time was 6.63 min.
The figure for `CCCCCCCCCCCCCCCCCC(=O)OCC(COP(=O)([O-])OCC[N+](C)(C)C)OC(=O)CCCCCCCCCCCCCCCCC` (stereo not drawn) [PC(18:0/18:0)] is 7.67 min; for `CCCCCCCCCCCCCCCCOCC(COP(=O)([O-])OCC[N+](C)(C)C)OC(=O)CCCCCCCCCCCCC` (stereo not drawn) [PC(O-16:0/14:0)] it is 6.13 min; for `CCCCCCCCCCCCCCCCOCC(COP(=O)([O-])OCC[N+](C)(C)C)OC(=O)CCCCCCCCCCCCCC` (stereo not drawn) [PC(O-16:0/15:0)] it is 6.47 min.
Take `CCCCCCCCCCCCCCCCOCC(COP(=O)([O-])OCC[N+](C)(C)C)OC(=O)CCCCCCCCCCCCCCC` (stereo not drawn) [PC(O-16:0/16:0)]: the LC retention time was 6.81 min.
In the case of `CCCCCCCCCCCCCCCCCCOCC(COP(=O)([O-])OCC[N+](C)(C)C)OC(=O)CCCCCCCCCCCCCCC` (stereo not drawn) [PC(O-18:0/16:0)], the LC retention time is 7.47 min.
As for `CCCCCCCCCCCCCCCC(=O)OC(CC(=O)[O-])C[N+](C)(C)C` (stereo not drawn) [Palmitoylcarnitine CAR(16:0)], the LC retention time is 1.75 min.
In the case of `CC(C=CC1=C(C)CCCC1(C)C)=CC=CC(C)=CCO` [Retinol], the LC retention time was 2.3 min.
The figure for `CCCCCCCCCCCC=CC(O)C(COP(=O)([O-])OCC[N+](C)(C)C)NC(=O)CCCCCCCCCCCCCCCCCCC` (stereo not drawn) [SM(d16:1/20:0)] is 6.5 min; for `CCCCCCCCCCCC=CC(O)C(COP(=O)([O-])OCC[N+](C)(C)C)NC(=O)CCCCCCCCCCCCCCCCCCCCC` (stereo not drawn) [SM(d16:1/22:0)] it is 7.23 min.
